Measured values taken from ChEMBL document CHEMBL1201862, “PubChem BioAssay data set” (2004).
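Values below derive from 48-hour exposures of cells grown in 96-well plates, with endpoints linearly interpolated between the two concentrations bracketing the appropriate inhibition level. Abbreviation: GI50, concentration required for 50% inhibition of growth.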 The source made the active and inactive calls. Cut-off read from the data, not from the text of the source: active = GI50 up to about 1.1 µM and inactive = higher. Starred links: 1 amine or outer side, 2 acyl side, 3 side chain; linkers in the order of their positions; H or OH if unused. Non-standard residues stand in square brackets, D forms with d. Residues, ends and D or L forms follow the SMILES beside them. X4 = C[C@H](N[*:1])C(=O)C(C)(C)C(=O)[*:2]; Hmpa(2S,3S) = CC[C@H](C)[C@H](O)C(=O)O; NMeY = CN[C@@H](Cc1ccc(O)cc1)C(=O)O; NMeL = CN[C@@H](CC(C)C)C(=O)O; NMeV = CN[C@H](C(=O)O)C(C)C; βAla = NCCC(=O)O

How the values were obtained:
Assay in all cases: inhibition of tumour cell growth, NCI panel, 48 h
A498 = tested on: A498
ACHN = tested on: ACHN
CCRF-CEM = tested on: CCRF-CEM
HCT-116 = tested on: HCT-116
HCT-15 = tested on: HCT-15
HOP-92 = tested on: HOP-92
IGROV-1 = tested on: IGROV-1
K562 = tested on: K562
MCF7 = tested on: MCF7
Malme-3M = tested on: Malme-3M
NCI-H522 = tested on: NCI-H522
PC-3 = tested on: PC-3
SF-295 = tested on: SF-295
SF-539 = tested on: SF-539
SN12C = tested on: SN12C
SNB-19 = tested on: SNB-19
T47D = tested on: T47D
UACC-257 = tested on: UACC-257
UACC-62 = tested on: UACC-62
UO-31 = tested on: UO-31

Row | Compound | GI50 (A498) | GI50 (ACHN) | GI50 (CCRF-CEM) | GI50 (HCT-116) | GI50 (HCT-15) | GI50 (HOP-92) | GI50 (IGROV-1) | GI50 (K562) | GI50 (MCF7) | GI50 (Malme-3M) | GI50 (NCI-H522) | GI50 (PC-3) | GI50 (SF-295) | GI50 (SF-539) | GI50 (SN12C) | GI50 (SNB-19) | GI50 (T47D) | GI50 (UACC-257) | GI50 (UACC-62) | GI50 (UO-31)
1 | COc1ccc(/C=C2\CC3C4CC=C5C[C@@H](N6CCCC6)CC[C@]5(C)C4CC[C@]3(C)[C@H]2O)cc1OC (stereo not given in full) | 8.2 µM (inactive) | 8.85 µM (inactive) | 8.17 µM (inactive) | 8.24 µM (inactive) | 6.81 µM | 10.7 µM (inactive) | 10.7 µM (inactive) | 8.09 µM (inactive) | 7.55 µM (inactive) | 9.2 µM (inactive) | 8.22 µM (inactive) | 6.3 µM (inactive) | 3.13 µM (inactive) | 7.06 µM (inactive) | 10.2 µM (inactive) | 10.4 µM (inactive) | 12.2 µM (inactive) | 8.13 µM (inactive) | 8.97 µM (inactive) | 9.27 µM (inactive)
2 | CC[C@H](C)[C@@H]1OC(=O)CCNC(=O)[C@@H](C)NC(=O)C(C)(C)C(=O)[C@H](C)NC(=O)[C@H](Cc2ccc(OC)cc2)N(C)C(=O)[C@H](C(C)C)N(C)C(=O)CNC(=O)[C@H](CC(C)C)N(C)C(=O)CNC1=O (cyclo(G[NMeL]G[NMeV][NMeY](Me)[X4][dA][βAla][Hmpa(2S,3S)])) | 1.38 µM (inactive) | 3.1 µM (inactive) | 0.0568 µM (active) | 0.0352 µM (active) | 1.63 µM | 0.665 µM (active) | 0.697 µM (active) | 0.0389 µM (active) | 0.387 µM (active) | 0.217 µM (active) | 0.0295 µM (active) | 0.31 µM (active) | 0.306 µM (active) | 0.252 µM (active) | 0.367 µM (active) | 0.111 µM (active) | 2.19 µM (inactive) | 0.218 µM (active) | 0.294 µM (active) | 7.76 µM (inactive)
3 | O=c1c2cc(-c3ccccc3)cnc2sn1-c1ccc(Oc2ccccc2)cc1 | 25.3 µM (inactive) | 66.8 µM (inactive) | 27.3 µM (inactive) | 51.9 µM (inactive) | 56.5 µM | 30.7 µM (inactive) | 32.6 µM (inactive) | > 100 µM (inactive) | 52.5 µM (inactive) | 92.5 µM (inactive) | 34.4 µM (inactive) | 20.4 µM (inactive) | 31 µM (inactive) | 50.4 µM (inactive) | 31.3 µM (inactive) | 19.2 µM (inactive) | 63 µM (inactive) | 67 µM (inactive) | 26.9 µM (inactive) | 47 µM (inactive)
4 | Cc1cc2ncn(CC(=O)O)c2cc1C | > 100 µM (inactive) | > 100 µM (inactive) | > 100 µM (inactive) | > 100 µM (inactive) | > 100 µM | > 100 µM (inactive) | > 100 µM (inactive) | > 100 µM (inactive) | > 100 µM (inactive) | > 100 µM (inactive) | > 100 µM (inactive) | > 100 µM (inactive) | > 100 µM (inactive) | > 100 µM (inactive) | > 100 µM (inactive) | > 100 µM (inactive) | > 100 µM (inactive) | > 100 µM (inactive) | > 100 µM (inactive) | > 100 µM (inactive)
5 | COC(=O)C1c2cc3c(cc2C(OC2OC(C)C(OC)C(C)(OC)C2OC)CC1(C)O)C(=O)c1c(O)cc2c(c1C3=O)OC1OC2(C)C(O)C([N+](C)(C)[O-])C1O (stereo not given) | 0.184 µM (active) | 0.309 µM (active) | 0.0504 µM (active) | 0.0197 µM (active) | 2.78 µM | 0.144 µM (active) | 0.0791 µM (active) | 0.0324 µM (active) | 0.149 µM (active) | 0.0581 µM (active) | 0.055 µM (active) | 0.355 µM (active) | 0.269 µM (active) | 0.0883 µM (active) | 0.102 µM (active) | 0.126 µM (active) | 0.13 µM (active) | 0.182 µM (active) | 0.0509 µM (active) | 1.19 µM (inactive)
6 | COc1cc(C2C3=C(COC3=O)Oc3cc4c(cc32)OCO4)ccc1OC(C)=O (stereo not given) | 1.53 µM (inactive) | 0.55 µM (active) | 0.35 µM (active) | 0.398 µM (active) | 0.468 µM | 6 µM (inactive) | 0.238 µM (active) | 0.13 µM (active) | 0.29 µM (active) | 0.0893 µM (active) | 0.0948 µM (active) | 0.186 µM (active) | 0.127 µM (active) | 0.25 µM (active) | 2.19 µM (inactive) | 0.35 µM (active) | 0.565 µM (active) | > 100 µM (inactive) | 0.54 µM (active) | 0.352 µM (active)
7 | CCOP(=O)(OCC)C(c1ccc(F)cc1)N(C(=O)NC(F)(F)F)c1cccc(C(F)(F)F)c1 (stereo not given) | > 100 µM (inactive) | > 100 µM (inactive) | > 100 µM (inactive) | 84.3 µM (inactive) | > 100 µM | 33.2 µM (inactive) | 65.8 µM (inactive) | 50.2 µM (inactive) | > 100 µM (inactive) | > 100 µM (inactive) | 67.8 µM (inactive) | > 100 µM (inactive) | > 100 µM (inactive) | > 100 µM (inactive) | > 100 µM (inactive) | 77.3 µM (inactive) | 83.9 µM (inactive) | > 100 µM (inactive) | 72.8 µM (inactive) | 94.8 µM (inactive)
8 | [N-]=[N+]=Nc1ccccc1C(=O)N1C(=O)c2ccccc2C(=O)N(C(=O)c2ccccc2N=[N+]=[N-])c2ccccc21 | 42.2 µM (inactive) | 45.1 µM (inactive) | 11.1 µM (inactive) | 35 µM (inactive) | 54.8 µM | 23.1 µM (inactive) | 46.9 µM (inactive) | 30.3 µM (inactive) | 52.2 µM (inactive) | > 100 µM (inactive) | 30.5 µM (inactive) | 21.4 µM (inactive) | 41.9 µM (inactive) | 43.7 µM (inactive) | 82.8 µM (inactive) | 60.4 µM (inactive) | 23.1 µM (inactive) | 82.4 µM (inactive) | 34.4 µM (inactive) | > 100 µM (inactive)
9 | [N-]=[N+]=CC(=O)OC1Cc2ccccc2C1 | > 100 µM (inactive) | 27.7 µM (inactive) | > 31.6 µM (inactive) | > 100 µM (inactive) | > 100 µM | 69.7 µM (inactive) | > 100 µM (inactive) | > 100 µM (inactive) | > 100 µM (inactive) | > 100 µM (inactive) | > 71 µM (inactive) | > 95.7 µM (inactive) | 61.9 µM (inactive) | > 100 µM (inactive) | > 39.4 µM (inactive) | > 100 µM (inactive) | > 100 µM (inactive) | > 100 µM (inactive) | > 100 µM (inactive) | 16.6 µM (inactive)
10 | CC(=O)Oc1c(C)c2c(O)c3c1C1=C(OCOC1=C(C)C3=O)/C(C)=C/C(C)(O)C(O)C(C)C(O)C1C(=O)OC(C(C)C1O)C(C)(O)/C=C\C=C(C)C(=O)N2 (stereo not given) | 15.1 µM (inactive) | 33.9 µM (inactive) | 21.5 µM (inactive) | 57.1 µM (inactive) | 48.9 µM | 20.7 µM (inactive) | 5.66 µM (inactive) | 21.7 µM (inactive) | 37.1 µM (inactive) | 41.9 µM (inactive) | 49.1 µM (inactive) | 27.5 µM (inactive) | 38.3 µM (inactive) | 10.4 µM (inactive) | 35 µM (inactive) | 66.8 µM (inactive) | > 100 µM (inactive) | > 100 µM (inactive) | 30.8 µM (inactive) | 11.1 µM (inactive)
11 | CC1=NN(C(=O)c2ccccc2O)C(=O)/C1=C/c1ccco1 | 2.43 µM (inactive) | 2.26 µM (inactive) | 1.61 µM (inactive) | 2.23 µM (inactive) | 2.22 µM | 7.03 µM (inactive) | 1.26 µM (inactive) | 2.64 µM (inactive) | 4.27 µM (inactive) | 11.9 µM (inactive) | 1.74 µM (inactive) | 3.04 µM (inactive) | 3.58 µM (inactive) | 0.818 µM (active) | 2.96 µM (inactive) | 7.55 µM (inactive) | > 100 µM (inactive) | 8.73 µM (inactive) | 0.436 µM (active) | 0.404 µM (active)
12 | CC(=O)C1C(=O)C(C(C)=O)C2C3C=CC(C3)C12 (stereo not given) | > 100 µM (inactive) | > 100 µM (inactive) | > 100 µM (inactive) | > 100 µM (inactive) | > 100 µM | > 100 µM (inactive) | > 100 µM (inactive) | > 100 µM (inactive) | > 100 µM (inactive) | > 100 µM (inactive) | > 100 µM (inactive) | > 100 µM (inactive) | > 100 µM (inactive) | > 100 µM (inactive) | > 100 µM (inactive) | > 100 µM (inactive) | > 100 µM (inactive) | > 100 µM (inactive) | > 100 µM (inactive) | > 100 µM (inactive)
